Assay [1] concerns the target T1, menin/MLL (terbium chelate-labeled menin, FITC-MBM1 peptide) (Homo sapiens, UniProt O00255, T541A).
T1 construct: Menin (a.a 1-610-6xhis tag)
T1 sequence (O00255 with tags, fused parts or gaps T541A): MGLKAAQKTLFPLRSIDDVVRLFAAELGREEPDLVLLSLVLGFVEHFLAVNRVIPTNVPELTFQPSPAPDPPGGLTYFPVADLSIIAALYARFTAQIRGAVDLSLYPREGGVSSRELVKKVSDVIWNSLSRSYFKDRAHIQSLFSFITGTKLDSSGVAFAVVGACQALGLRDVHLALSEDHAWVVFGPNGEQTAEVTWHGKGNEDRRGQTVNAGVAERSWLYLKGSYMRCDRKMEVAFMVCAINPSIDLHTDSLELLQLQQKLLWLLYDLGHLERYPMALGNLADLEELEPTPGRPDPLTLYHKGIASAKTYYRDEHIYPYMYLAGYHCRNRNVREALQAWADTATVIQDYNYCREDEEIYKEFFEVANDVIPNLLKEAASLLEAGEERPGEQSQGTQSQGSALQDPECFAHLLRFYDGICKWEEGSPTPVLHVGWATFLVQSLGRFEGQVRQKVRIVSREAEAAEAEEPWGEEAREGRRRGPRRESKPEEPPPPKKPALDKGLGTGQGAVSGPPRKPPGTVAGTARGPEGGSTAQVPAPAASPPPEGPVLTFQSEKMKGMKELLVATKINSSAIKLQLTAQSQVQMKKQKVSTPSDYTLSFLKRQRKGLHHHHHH
Kind of assay: Menin/MLL homogenous time-resolved fluorescence (HTRF) assay. Particulars: 30 min incubation. It is filed as binding. An outline of the steps:
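Read-out: TR-FRET ratio (FITC 520 nm / terbium 490 nm, ex. 337 nm) after 15 min with 75 nM FITC-MBM1 peptide. Test compound first sat 30 min with 200 pM Tb-menin 1-610-His, 0.5% DMSO, pH 7.5 Tris buffer. IC50 by Hill fit; values under 0.1 nM reported as 0.1 nM.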
In general terms: Time-resolved FRET reads energy transfer from a long-lived donor to a nearby acceptor.

The subject of another assay is MOLM14 cells. Kind of assay: Proliferation assay, spheroid-like growth, MOLM14 (MLL-AF9 rearranged). The note with it: 8 days, confluence as measure of spheroid size, read-out: spheroid assay_OneTime MOLM14 IC50. It is filed as cell-based, human. An outline of the steps:
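MOLM14 (MLL-AF9) or KO-52 (MLL wildtype) cells were grown in ultra-low attachment round-bottom wells with compound (0.3% DMSO) for 8 days at 37 °C. Spheroid confluence was imaged live on day 8, normalized to DMSO and a high-dose reference/staurosporin control, and absolute IC50 fitted with variable slope.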

Another assay relates to KO-52 cells. Kind of assay: Proliferation assay, spheroid-like growth, KO-52 (MLL wildtype control cell line). It is filed as cell-based, human. The note with it: KO-52 control cells, 8 days, confluence as measure of spheroid size, read-out: spheroid assay_OneTime KO-52 IC50. On the procedure:
The anti-proliferative effect of menin/MLL protein/protein interaction inhibitor test compounds was assessed in human leukemia cell lines. The cell line MOLM14 harbors a MLL translocation and expresses the MLL fusion proteins MLL-AF9, respectively, as well as the wildtype protein from the second allele. […] KO-52 was used as a control cell line containing two MLL (KMT2A) wildtype alleles in order to exclude compounds that display general cytotoxic effects.
MOLM14 cells were cultured in RPMI-1640 (Sigma Aldrich) supplemented with 10% heat-inactivated fetal bovine serum (HyClone), 2 mM L-glutamine (Sigma Aldrich) and 50 μg/ml gentamycin (Gibco). KO-52 cell lines were propagated in alpha-MEM (Sigma Aldrich) supplemented with 20% heat-inactivated fetal bovine serum (HyClone), 2 mM L-glutamine (Sigma Aldrich) and 50 μg/ml gentamycin (Gibco).
In order to assess the anti-proliferative effects, 200 MOLM14 cells, or 300 KO-52 cells were seeded in 200 μl media per well in 96-well round bottom, ultra-low attachment plates (Costar, catalogue number 7007). Cell seeding numbers were chosen based on growth curves to ensure linear growth throughout the experiment. Test compounds were added at different concentrations and the DMSO content was normalized to 0.3%. Cells were incubated for 8 days at 37° C. and 5% CO2. Spheroid like growth was measured in real-time by live-cell imaging (IncuCyteZOOM, Essenbio, 4× objective) acquiring images at day 8. Confluence (%) as a measure of spheroid size was determined using an integrated analysis tool.
In order to determine the effect of the test compounds over time, the confluence in each well as a measure of spheroid size, was calculated. Confluence of the highest dose of a reference compound was used as baseline for the LC (Low control) and the confluence of DMSO treated cells was used as 0% cytotoxicity (High Control, HC).
Absolute IC50 values were calculated as percent change in confluence as follows:
LC=Low Control: cells treated with e.g. 1 μM of the cytotoxic agent staurosporin, or e.g. cells treated with a high concentration of an alternative reference compound
GraphPad Prism (version 7.00) was used to calculate the IC50. Dose-response equation was used for the plot of % Effect vs Log 10 compound concentration with a variable slope and fixing the maximum to 100% and the minimum to 0%.

As usually defined, the IC50 is the midpoint of a concentration-inhibition curve.

Structures are written as SMILES. Read-outs that look alike come from different tables or passages of the source.

Consider `CC(C)[C@H]([C@H]1C[C@@H](N2CC(O)C3(CC3)C2)C1)N1CC2(CCN(c3ncnnc3Oc3ccc(F)cc3-c3cncnc3C3CC3)C2)C1` (mixture of isomers) [Compound 42], for which the IC50 was 0.1 nM in assay [1]; 4 nM with MOLM14 cells (Homo sapiens, MOLM-14, 192 h); 2120 nM in the assay on KO-52 cells (Homo sapiens, 192 h).

Take `CC(C)[C@H]([C@H]1C[C@H](N2CC(O)C3(CC3)C2)C1)N1CC2(CCN(c3ncnnc3Oc3ccc(F)cc3-c3cncnc3C3CC3)C2)C1` (mixture of isomers) [Compound 43]: the IC50 in assay [1] is 0.1 nM; in the assay on MOLM14 cells (Homo sapiens, MOLM-14, 192 h), 42 nM; with KO-52 cells (Homo sapiens, 192 h), 9960 nM.

Regarding `CC(C)[C@H]([C@H]1C[C@H](N2CC(O)C3(CCC3)C2)C1)N1CC2(CCN(c3ncnnc3Oc3ccc(F)cc3-c3cncnc3C3CC3)C2)C1` (mixture of isomers) [Compound 213], the IC50 stood at 0.1 nM in assay [1]; 41 nM with MOLM14 cells (Homo sapiens, MOLM-14, 192 h); 3910 nM in the assay with KO-52 cells (Homo sapiens, 192 h).

In the case of `COC1(C)CCN([C@H]2C[C@H]([C@H](C(C)C)N3CC4(CCN(c5ncnnc5Oc5ccc(F)cc5-c5nnccc5C5CC5)C4)C3)C2)C1` (mixture of isomers) [Compound 276], the IC50 in assay [1] was 0.8 nM; in the assay with MOLM14 cells (Homo sapiens, MOLM-14, 192 h), 82 nM; with KO-52 cells (Homo sapiens, 192 h), over 15000 nM.

Turning to `CC(C)C([C@H]1C[C@@H](N)C1)N1CC2(CCN(c3ncnnc3Oc3ccc(F)cc3-c3cncnc3C3CC3)C2)C1` (single isomer, unassigned) [Compound 1a], the IC50 is 0.1 nM in assay [1]; 20 nM with MOLM14 cells; over 15000 nM in the assay with KO-52 cells (Homo sapiens, 192 h).

On to `CC(C)C([C@H]1C[C@@H](N)C1)N1CC2(CCN(c3ncnnc3Oc3ccc(F)cc3-c3cncnc3C3CC3)C2)C1` (single isomer, unassigned) [Compound 1b], for which the IC50 was 0.4 nM in assay [1], 200 nM in the assay on MOLM14 cells and over 15000 nM in the assay with KO-52 cells.

With `CC(=O)N[C@H]1C[C@@H]([C@@H](C(C)C)N2CC3(CCN(c4ncnnc4Oc4ccc(F)cc4-c4cncnc4C4CC4)C3)C2)C1` (single isomer, unassigned) [Compound 2a], the IC50 amounted to 0.2 nM in assay [1]; 22 nM in the assay with MOLM14 cells (Homo sapiens, MOLM-14, 192 h); 7000 nM in the assay on KO-52 cells (Homo sapiens, 192 h).

On to `CC(=O)NC1CC(C(C(C)C)N2CC3(CCN(c4ncnnc4Oc4ccc(F)cc4-c4cncnc4C4CC4)C3)C2)C1` (single isomer, unassigned) [Compound 2b], for which the IC50 in assay [1] was 16.6 nM; in the assay with MOLM14 cells, 1310 nM; in the assay with KO-52 cells it was over 15000 nM.

Consider `CC(C)[C@H](C1CCN(CC2(O)CC2)CC1)N1CC2(CCN(c3ncnnc3Oc3ccc(F)cc3-c3cncnc3C3CC3)C2)C1` (single isomer, unassigned) [Compound 4], for which the IC50 in assay [1] is 0.3 nM; in the assay on MOLM14 cells (Homo sapiens, MOLM-14, 192 h), 66 nM; in the assay on KO-52 cells (Homo sapiens, 192 h) it was 7730 nM.

For the compound `CC(C)[C@H](C1CCN(CC2COC2)CC1)N1CC2(CCN(c3ncnnc3Oc3ccc(F)cc3-c3cncnc3C3CC3)C2)C1` (single isomer, unassigned) [Compound 5], the IC50 in assay [1] is 0.2 nM; in the assay on MOLM14 cells (Homo sapiens, MOLM-14, 192 h), 120 nM; with KO-52 cells (Homo sapiens, 192 h), 9310 nM.

For `CC(C)C([C@H]1C[C@@H](N(C)C)C1)N1CC2(CCN(c3ncnnc3Oc3ccc(F)cc3-c3cncnc3C3CC3)C2)C1` (single isomer, unassigned) [Compound 7], the IC50 was found to be 0.1 nM in assay [1]; 4 nM in the assay with MOLM14 cells (Homo sapiens, MOLM-14, 192 h); 5040 nM in the assay with KO-52 cells (Homo sapiens, 192 h).

With `CC(C)C([C@H]1C[C@H](N(C)C)C1)N1CC2(CCN(c3ncnnc3Oc3ccc(F)cc3-c3cncnc3C3CC3)C2)C1` (single isomer, unassigned) [Compound 8], the IC50 worked out at 0.3 nM in assay [1]; 52 nM in the assay with MOLM14 cells (Homo sapiens, MOLM-14, 192 h); 10200 nM in the assay with KO-52 cells (Homo sapiens, 192 h).

Consider `CC(C)[C@H]([C@H]1C[C@@H](N2CCC(S(C)(=O)=O)CC2)C1)N1CC2(CCN(c3ncnnc3Oc3ccc(F)cc3-c3cncnc3C3CC3)C2)C1` (single isomer, unassigned) [Compound 9], for which the IC50 came out at 0.1 nM in assay [1]; 21 nM in the assay on MOLM14 cells (Homo sapiens, MOLM-14, 192 h); 7160 nM with KO-52 cells (Homo sapiens, 192 h).

As to `CC(C)[C@H]([C@H]1C[C@@H](N2CCC(O)C(F)C2)C1)N1CC2(CCN(c3ncnnc3Oc3ccc(F)cc3-c3cncnc3C3CC3)C2)C1` (single isomer, unassigned) [Compound 10], the IC50 was 0.4 nM in assay [1]; 17 nM in the assay on MOLM14 cells (Homo sapiens, MOLM-14, 192 h); 5090 nM in the assay with KO-52 cells (Homo sapiens, 192 h).

Regarding `CC(C)[C@H]([C@H]1C[C@H](N2CCC(C)(C(=O)N(C)C)CC2)C1)N1CC2(CCN(c3ncnnc3Oc3ccc(F)cc3-c3cncnc3C3CC3)C2)C1` (single isomer, unassigned) [Compound 63], the IC50 in the assay on MOLM14 cells (Homo sapiens, MOLM-14, 192 h) is 57 nM; with KO-52 cells (Homo sapiens, 192 h) it was over 15000 nM.

With `CC(C)[C@H]([C@H]1C[C@@H](NC(=O)C2CC2)C1)N1CC2(CCN(c3ncnnc3Oc3ccc(F)cc3-c3cccc(=O)n3C3CC3)C2)C1` (single isomer, unassigned) [Compound 190], the IC50 in the assay on MOLM14 cells (Homo sapiens, MOLM-14, 192 h) came to 76 nM; in the assay with KO-52 cells (Homo sapiens, 192 h) it was 14800 nM.

For the compound `CC(C)[C@@H]([C@H]1C[C@@H](NC(=O)C2CC2)C1)N1CC2(CCN(c3ncnnc3Oc3ccc(F)cc3-c3cccc(=O)n3C3CC3)C2)C1` (single isomer, unassigned) [Compound 191], the IC50 was over 940 nM in the assay with MOLM14 cells (Homo sapiens, MOLM-14, 192 h) and over 15000 nM in the assay with KO-52 cells (Homo sapiens, 192 h).

For `CC(C)[C@H]([C@H]1C[C@@H](N2CC[C@](C)(O)C2)C1)N1CC2(CCN(c3ncnnc3Oc3ccc(F)cc3-c3cncnc3C3CC3)C2)C1` [Compound 12], the IC50 in the assay on MOLM14 cells (Homo sapiens, MOLM-14, 192 h) is 2 nM; with KO-52 cells (Homo sapiens, 192 h), over 15000 nM.

Regarding `CC(C)C([C@H]1C[C@H](N2CCC(C)(O)CC2)C1)N1CC2(CCN(c3ncnnc3Oc3ccc(F)cc3-c3cncnc3C3CC3)C2)C1` (stereo partly drawn) [Compound 130], the 50% inhibitory concentration (IC50) in the assay on MOLM14 cells (Homo sapiens, MOLM-14, 192 h) is 120 nM; in the assay on KO-52 cells (Homo sapiens, 192 h), over 15000 nM.

On to `CC(C)C([C@H]1C[C@H](NCC(C)(C)O)C1)N1CC2(CCN(c3ncnnc3Oc3ccc(F)cc3-c3cncnc3C3CC3)C2)C1` (stereo partly drawn) [Compound 134], for which the IC50 in the assay with MOLM14 cells (Homo sapiens, MOLM-14, 192 h) turned out to be 130 nM; with KO-52 cells (Homo sapiens, 192 h), 13200 nM.

For `CC(C)C([C@H]1C[C@H](N2CC3(COC3)C2)C1)N1CC2(CCN(c3ncnnc3Oc3ccc(F)cc3-c3ncc(C#N)cc3C3CC3)C2)C1` (stereo partly drawn) [Compound 141], the IC50 in the assay on MOLM14 cells (Homo sapiens, MOLM-14, 192 h) came to 260 nM; with KO-52 cells (Homo sapiens, 192 h), 12400 nM.

Consider `CC(C)C([C@H]1C[C@@H](N2C[C@H]3COC[C@H]3C2)C1)N1CC2(CCN(c3ncnnc3Oc3ccc(F)cc3-c3cnc(C#N)nc3C3CC3)C2)C1` (stereo partly drawn) [Compound 166], for which the IC50 is 3 nM with MOLM14 cells (Homo sapiens, MOLM-14, 192 h) and 1530 nM in the assay on KO-52 cells (Homo sapiens, 192 h).

For `Fc1ccc(Oc2nncnc2N2CCC3(C2)CN(C(C2CCN(CC4COC4)CC2)C24CC(C2)C4)C3)c(-c2nnccc2C2CC2)c1` (stereo not drawn) [Compound 340], the IC50 worked out at 170 nM in the assay on MOLM14 cells (Homo sapiens, MOLM-14, 192 h) and 11400 nM with KO-52 cells (Homo sapiens, 192 h).

The values above are taken from patent US20240417405A1, “Substituted Spiro Derivatives” (Janssen Pharmaceutica NV, priority 2021, published 2024).
